Data taken from US20250074911A1, “MACROCYCLIC BTK INHIBITORS” (Crossfire Oncology Holding B.V., priority 2021, published 2025).

What was measured:
wt-BTK = wt-BTK (Homo sapiens (Human), UniProt Q06187); assay: Binding kinetics measurements (Surface Plasmon Resonance) on wt-BTK; conditions: for Tau (h) wt-BTK (Act): target residence time, SPR
How it was run: (§1)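 Constants (ka, kd, KD) are geometric means of duplicates from single cycle SPR at 22° C, with compound at 3.16-316 nM in five steps. Residence time for induced-fit binders derived per a two-state model.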

BTK T474I = BTK T474I (Homo sapiens (Human), UniProt Q06187, T474I); assay: Binding kinetics measurements (Surface Plasmon Resonance) on BTK T474I; conditions: for Tau (h) BTK T474I (Act): target residence time, SPR
Chain of BTK T474I (Q06187 whole entry T474I): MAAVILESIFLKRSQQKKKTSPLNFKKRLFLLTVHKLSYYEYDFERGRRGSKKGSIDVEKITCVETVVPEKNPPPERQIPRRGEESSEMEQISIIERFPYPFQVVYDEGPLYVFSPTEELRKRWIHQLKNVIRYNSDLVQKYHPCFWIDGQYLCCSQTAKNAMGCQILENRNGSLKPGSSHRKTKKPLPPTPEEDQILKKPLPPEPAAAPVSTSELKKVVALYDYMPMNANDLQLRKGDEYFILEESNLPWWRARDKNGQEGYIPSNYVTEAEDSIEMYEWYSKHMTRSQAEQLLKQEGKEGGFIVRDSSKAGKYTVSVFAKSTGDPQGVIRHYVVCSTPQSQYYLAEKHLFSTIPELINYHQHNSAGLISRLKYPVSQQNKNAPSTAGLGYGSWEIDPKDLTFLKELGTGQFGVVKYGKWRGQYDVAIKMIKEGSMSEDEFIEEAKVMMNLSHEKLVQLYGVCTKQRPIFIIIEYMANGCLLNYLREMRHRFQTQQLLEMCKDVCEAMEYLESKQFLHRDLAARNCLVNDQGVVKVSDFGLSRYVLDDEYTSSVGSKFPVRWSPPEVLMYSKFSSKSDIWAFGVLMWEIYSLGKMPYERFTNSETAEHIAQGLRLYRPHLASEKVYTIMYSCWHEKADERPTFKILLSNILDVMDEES
How it was run: as §1

BTK T316A = BTK T316A (Homo sapiens (Human), UniProt Q06187, T316A); assay: Binding kinetics measurements (Surface Plasmon Resonance) on BTK T316A; conditions: for Tau (h) BTK T316A (Act): target residence time, SPR
Chain of BTK T316A (Q06187 whole entry T316A): as the sequence (Q06187 whole entry T474I) above, with T316A, I474T counted along it
How it was run: as §1

[1] = tested on: wt-BTK, BTK C481S, BTK T474I and BTK C481S/T474I expressing 293 cells; assay: Cell based washout, pBTK (Tyr223) Western blot; parameters: species or system human; conditions: 1000 nM compound 2 hours, washed twice, harvested 0-24 hours
Protocol: In vitro cellular (mutant) BTK inhibition, and inhibitor wash-out Generation of human wt-BTK, BTK C481S, BTK T474I, and BTK C481S/T474I expressing GripTite 293 MSR cells.
GripTite 293 MSR cells (Thermo Fisher, cat. no. R79507), here after referred to as 293 cells, were cultured in DMEM/F-12, GIutaMAX™ supplement medium (Thermo Fisher cat. no. 10565018) supplemented with 1% Penicilline/Streptomycine (Thermo Fisher cat. no. 15140122) 10% fetal bovine serum (Biowest, cat. no. Si181 0-500), 1× MEM Non-Essential Amino Acids (Thermo Fisher cat. no. 11140050) and 50 μg/ml Geneticin (Thermo Fisher cat. no. 10131035). Cells were transfected, with pEF6/V5-HisB (Thermo Fisher cat. no. V96120) expression vectors containing either full-length wildtype-BTK (canonical sequence NM_000061), BTK C481 S, BTK T474I or BTK C481 S/T474I (BaseClear) using Lipofectamine™ 3000 (Invitrogen). Because the stop codon at the end of the coding sequence of BTK has been conserved, the His-tag present in the expression vector is not being used. Immediately after transfection, cells were cultured in medium without Geneticin, and after 24 hours 50 μg/ml geneticin was added. 48 hours after transfection, medium was removed and replaced by medium containing both geneticin (50 μg/ml) and blasticidin (10 μg/ml) S HCl (Thermo Fisher, cat. no. A1113903). The resulting transfectants were cultured under blasticidin selection pressure for 18-35 passages to obtain stable wild-type BTK (wt-BTK), BTK C481S, BTK T474I, and BTK C481 S/T474I expressing cell pools. Stability of the (mutant) BTK expression in the 293 cell pools was confirmed by poly-acrylamide gel electrophoresis followed by Western blotting (FIG. 1A). […] For both experiments 10 μg of protein was separated on 4-12% Bis-Tris polyacrylamide gels.
Wild-type BTK, BTK C481S, BTK T474I or BTK C481 S/T474I expressing 293 cells were lysed in lysis buffer supplemented with protease inhibitors (Merck, cat. no. P8340) and phosphatase inhibitors (Thermo Fisher, cat. no. 78426). The protein concentration was determined with a Pierce BCA protein assay kit (Thermo Fisher, cat. no. 23227). Lysates were diluted to a concentration of 1 μg/μl in NuPage® LDS Sample Buffer (Thermo Fisher, cat. no. NP0008) with 167 mM DTT (Acros Organics, cat. no. 10686841) and denatured for 5 minutes at 95° C. The samples (10 μg protein) were, together with a pre stained protein ladder (Thermo Fisher, cat. no. 26616), separated on 4-12% Bis-Tris polyacrylamide gels (Thermo Fisher, cat. no. NP0324BOX). Separated protein was subsequently transferred, in methanol free transfer buffer (Thermo Fisher, cat. no. 35045), to a nitrocellulose membrane (Thermo Fisher, cat. no. 88018). Blots were first immunologically stained with phospho-BTK (Tyr223) rabbit mAb (Cell Signaling, cat. no. 5082S), and beta-actin rabbit mAb (Cell Signaling, cat. no. 4967S), followed by peroxidase conjugated goat anti-rabbit IgG (Cell Signaling, cat. no. 7074S). Afterwards, antibodies were removed using Western-blot stripping buffer (Thermo Fisher cat. no. 46428) and staining was repeated with a (total-)BTK mouse mAb (Abnova, cat. no. MAB0798), followed by peroxidase conjugated horse anti-mouse IgG (Cell Signaling, cat. no. 7076S). For all blots the colour development was performed with ECL horseradish peroxidase substrate (BioRad, cat. no. 170-5060).
Wild-type BTK, BTK C481S, BTK T474I, and BTK C481 S/T474I expressing 293 cells were growing exponentially when seeded in culture medium, without blasticidin, at a density of 2,000,000 cells/4 ml/well, in 25 cm^2 cell culture flasks (Greiner Bio-one, cat. no. 690175). Flasks were placed in a 37° C. C02-incubator for 16-24 hours after which 1 ml culture medium containing 5000 nM of the compound of Example 46 or Example 201, or Example 184, or Example 204, or Example 45 or (+/−) Loxo-305, or 0.05% DMSO (no compound) was added. 2 hours after addition of the inhibitors (0h) cells are either collected or washed twice with 5 ml culture medium. […]

BTK T474S = BTK T474S (Homo sapiens (Human), UniProt Q06187, T474S); assay: Binding kinetics measurements (Surface Plasmon Resonance) on BTK T474S; conditions: for residence time: read-out: Tau (h) BTK T474S (Act), target residence time
Chain of BTK T474S (Q06187 whole entry T474S): as the sequence (Q06187 whole entry T474I) above, with I474S counted along it
How it was run: as §1

BTK C481S = BTK C481S (Homo sapiens (Human), UniProt Q06187, C481S); assay: Binding kinetics measurements (Surface Plasmon Resonance) on BTK C481S; conditions: for Tau (h) BTK C418S (Act): target residence time for BTK C481S, SPR
Chain of BTK C481S (Q06187 whole entry C481S): as the sequence (Q06187 whole entry T474I) above, with I474T, C481S counted along it
How it was run: as §1

[2] = binding affinity by Surface Plasmon Resonance (SPR)

Chain of wt-BTK (Q06187 whole entry): as the sequence (Q06187 whole entry T474I) above, with I474T counted along it

SMILES	Kd (wt-BTK; [2]) [nM]	Tau (h) wt-BTK (Act) (wt-BTK) [h]	Kd (BTK T474I; [2]) [nM]	Tau (h) BTK T474I (Act) (BTK T474I) [h]	Kd (BTK T316A; [2]) [nM]	Tau (h) BTK T316A (Act) (BTK T316A) [h]	time for which level of phosphorylated BTK (pBTK (Tyr223)) is prohibited or reduced after wash-out ([1]; also cell lines expressing mutant BTK)	Kd (BTK T474S; [2]) [nM]	residence time (BTK T474S) [h]	Kd (BTK C481S; [2]) [nM]	Tau (h) BTK C418S (Act) (BTK C481S) [h]	target residence time on wild-type-BTK (wt-BTK; result in words)	target residence time on BTK T474 mutants (T474I) (BTK T474I; result in words)	target residence time on BTK T316 mutants (BTK T316A; result in words)	level of phosphorylated BTK (pBTK (Tyr223)) in wash-out experiments ([1]; result in words)	target residence time on BTK T474 mutants (T474S) (BTK T474S; result in words)	target residence time on BTK C481 mutants (BTK C481S; result in words)
Nc1ncc2c3c1c(-c1ccc(C(=O)Nc4cc(C(F)(F)F)ccn4)cc1)nn3[C@@H]1CCC[C@H](C1)NC(=O)CCCCC/C=C/2 [Example 46]	< 5	4.87	< 2	2.58	< 5	3.23	at least 6 hours	< 3	4.8	< 5	9.36						
COc1ccc(F)cc1C(=O)NCc1ccc(-c2nn([C@@H](C)C(F)(F)F)c(N)c2C(N)=O)cc1 [pirtobrutinib, reference compound]		0.45		0.03		0.17			1.25		0.91	short target residence times	short target residence times	short target residence times	does not prohibit or reduce the level of phosphorylated BTK	short target residence times	short target residence times
